Measurements reported in US12605451B2, “Targeted plasma protein degradation” (Novartis AG, priority 2020, dated 2026).

What was measured:
human ASGPR1 = biological target: T1, human ASGPR1 (Homo sapiens, UniProt P07306); test: ASGPR1 SPR direct binding (Biacore, SA chip); conditions: Bifunctional Compound (FHR3 series), Table 7, read-out: ASGRR KD
T1 construct: Recombinant extracellular domain of human ASGPR1 with N-terminal biotinylated Avitag
T1 sequence (P07306 62-291 limits assumed): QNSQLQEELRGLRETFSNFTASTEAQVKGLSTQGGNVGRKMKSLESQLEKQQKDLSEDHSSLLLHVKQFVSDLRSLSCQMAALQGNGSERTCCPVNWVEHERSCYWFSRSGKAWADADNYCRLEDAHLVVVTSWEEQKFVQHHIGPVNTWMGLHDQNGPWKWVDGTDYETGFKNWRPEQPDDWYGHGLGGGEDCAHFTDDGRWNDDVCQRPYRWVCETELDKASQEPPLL
Description: SPR was used to obtain the binding data for ASGP receptor ligand compound (int-CC2), either alone or as part of the bifunctional compounds (BFC-13), (BFC-15) and (BFC16).
(§1) ASGPR1 SPR experiments were performed on either Biacore T200 or Biacore 8K. The assay was optimized for Biacore (Streptavidin) SA chip in running buffer consisting of 20 mM HEPES, 300 mM NaCl, 2 mM CaCl2, 0.01% tween-20, 2% DMSO, pH 7.4. Recombinant extracellular domain of human ASGPR1 with N-terminal biotinylated Avitag was diluted to 20 μg/mL in running buffer, and immobilized onto SA chip after it was preconditioned with at least four 60-second injections at 30 uL/min of 1 M NaCl/40 mM NaOH solution. Protein immobilization level varied from 500 RU to 3500 RU dependent on analytes' molecular weight, for targeted Rmax of 30 RUs. Direct binding of analytes to ASGPR1 was observed when a dose response titration of analytes in 2% DMSO was flown over the immobilized protein. Data analysis was done on either Biacore T200 Evaluation Software or Biacore Insight Evaluation Software.
SPR was used to obtain the binding data for ASGP receptor ligand compounds (int-CC2), either alone or as part of the bifunctional compounds (BFC1).
as §1, with “Biacore” for “Biacore (Streptavidin)”

FHR3 = biological target: T2, FHR3 (Homo sapiens, UniProt Q02985); test: SPR binding to biotinylated FHR3 (Proteon XPR36); conditions: Bifunctional Compound
T2 construct: Purified FHR3 with C-terminal biotinylated Avitag was used for the assay
T2 sequence (Q02985 19-330): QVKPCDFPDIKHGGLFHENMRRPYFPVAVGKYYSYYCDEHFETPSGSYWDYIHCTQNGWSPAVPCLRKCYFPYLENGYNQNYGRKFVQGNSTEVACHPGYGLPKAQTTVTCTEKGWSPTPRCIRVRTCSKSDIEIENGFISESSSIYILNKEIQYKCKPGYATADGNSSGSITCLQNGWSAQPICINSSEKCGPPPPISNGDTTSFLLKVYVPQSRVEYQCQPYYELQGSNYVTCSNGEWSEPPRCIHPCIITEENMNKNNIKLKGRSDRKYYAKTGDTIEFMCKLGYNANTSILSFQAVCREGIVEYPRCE
Description: SPR was used to obtain the binding data for FHR3 receptor ligands compounds (C12), (C13), (C14), (C15) and (C16), either alone or as part of the bifunctional compounds (BFC13), (BFC14), (BFC15), (BFC16) and (BFC17), respectively.
SPR Binding experiments were performed on a Proteon XPR36 instrument (Bio-Rad Laboratories). Purified FHR3 with C-terminal biotinylated Avitag was used for the assay. Biotinylated FHR3 was incubated with fivefold molar excess of bifunctional compounds (BFC13), (BFC14), (BFC15), (BFC16) or (BFC17), or compounds (C12), (C13), (C14), (C15) or (C16), and immobilized onto a Neutravidin coated sensor chip. (NLC chip, Bio-Rad Laboratories, Inc). […]
To perform sandwich SPR binding assays, His-ASGPR1 (62-291) protein stocks were diluted with running buffer to a desired concentration. […] Sensorgrams were recorded for association and dissociation phases. All sensorgrams were processed by subtracting the binding response recorded from a blank control surfaces (or interspot surfaces), followed by subtracting buffer blank injections from the reaction surface. […]

Kd (human ASGPR1): 0.32 nM | Kd (FHR3): 26 nM
Compound: CC(=O)N[C@H]1[C@H](OCCCCC(=O)NCCCNC(=O)CCOCC(COCCC(=O)NCCCNC(=O)CCCCO[C@@H]2O[C@H](CO)[C@H](O)[C@H](O)[C@H]2NC(C)=O)(COCCC(=O)NCCCNC(=O)CCCCO[C@@H]2O[C@H](CO)[C@H](O)[C@H](O)[C@H]2NC(C)=O)NC(=O)CCOCCOCCOCCOCCOCCOCCOCCOCCOCCC(=O)NCCCC[C@@H]2NC(=O)[C@H](CCCNC(=N)N)NC(=O)[C@H](C)N(C)C(=O)[C@H](Cc3c[nH]c4ccccc34)NC(=O)[C@H](Cc3c[nH]cn3)NC(=O)[C@H](CC(C)C)NC(=O)[C@H](CO)NC(=O)[C@H](C)N(C)C(=O)[C@H](Cc3ccccc3)N(C)C(=O)[C@H](Cc3ccccc3)NC(=O)CSC[C@@H](C(=O)NCC(N)=O)NC(=O)[C@H](CCCNC(=N)N)NC(=O)[C@H](CC(=O)O)NC2=O)O[C@H](CO)[C@H](O)[C@@H]1O [BFC-16]
